{"source": "paper PMC4201147", "about": "(Frontiers in Chemistry, 2014)", "molecules": {"B1": {"name": "adiponectin protein: full-sized adiponectin protein, 244 amino acid cytokine (protein, UniProt Q15848 1-244, looked up)", "chain": "MLLLGAVLLLLALPGHDQETTTQGPGVLLPLPKGACTGWMAGIPGHPGHNGAPGRDGRDGTPGEKGEKGDPGLIGPKGDIGETGVPGAEGPRGFPGIQGRKGEPGEGAYVYRSAFSVGLETYVTIPNMPIRFTKIFYNQQNHYDGSTGKFHCNIPGLYYFAYHITVYMKDVKVSLFKKDKAMLFTYDQYQENNVDQASGSVLLHLEVGDQVWLQVYGEGERNGLYADNDNDSTFTGFLLYHDTN", "modifications": "full-length", "notes": "full-sized adiponectin protein, 244 amino acid cytokine"}}, "key": {"[1]": {"test_system": "K562 chronic myeloid leukemia (CML) cells", "assay": "K562 CML cell proliferation, 3-day growth inhibition by cell count", "format": "cell-based, human", "description": "(§1) MCF-7 BC and K562 chronic myeloid leukemia (CML) cells were grown in standard RPMI 1640 medium. Seventy-five thousand MCF-7 and 100,000 K-562 cells grown in RPMI 1640 medium containing 10% fetal bovine serum (FBS, for MCF-7) or 0.5% bovine serum albumin (BSA, for K562) were seeded into wells of 24-well culture plates. After 24 h, MCF-7 cells were shifted to K562 medium (serum free). After an additional 24 h, the cultures were treated with various concentrations of peptides or a mixture of peptides for 72 h and counted. The assays were done in triplicates and repeated twice from different cell preparations. The cell numbers were expressed as means ± standard error (SE). Statistical analysis was done with a SlideWrite graphical software package (Encinitas, USA)."}, "normal mice": {"test_system": "normal mice", "conditions": "up to a 10 mg/kg bolus intraperitoneal (ip) dose; ref Otvos et al., 2011a; cited from earlier work", "from_the_text": "In 2011 we reported on the identification of the adiponectin active site and the design and functional characterization of adiponectin-based peptide compounds for the activation of AdipoR using glioma and breast cancer (BC) model systems (Otvos et al., [2011a]). The lead peptide, the 10-mer ADP355, primarily acts through AdipoR1 and induces typical adiponectin signaling pathways in cancer cells (Otvos et al., [2011a])."}, "[2]": {"conditions": "estimated from degradation kinetics in diluted mouse serum; ref Otvos et al., 2011a; cited from earlier work", "from_the_text": "Peptide ADP355 (355) is remarkably stable in mouse serum (Otvos et al., [2011a]). […] This stability level is quite high among peptide therapeutics, and is li ..."}, "Serum stability": {"assay": "Serum stability", "format": "in vitro ADME", "conditions": "undiluted pooled mouse serum, RP-HPLC at 214 nm, triplicate; for half-life at 0.075 mg/mL: 10 μL of 3 mg/mL peptide in 390 μL serum, 37°C, 0, 30, 120, 240 min, TCA precipitation", "description": "(§2) For serum stability studies (Powell et al., [1993]) 10 μL of an aqueous peptide stock solution (3 mg/mL) was added to 390 μL pooled mouse serum in triplicate. The peptide-serum mixtures were thermostated at 37°C. After 0, 30, 120, and 240 min, 95 μL aliquots were mixed with 25 μL trichloroacetic acid (15%, w/v) and incubated for 10 min on ice. The precipitated proteins were separated by centrifugation (5 min, 12,000 × g, Eppendorf MiniSpin). The supernatant (90 μL) was neutralized with 8.5 μL aqueous sodium hydroxide solution (1 M) and mixed with 3% aqueous acetonitrile containing 0.1% TFA (121.5 μL). After centrifugation (5 min, 12,000 × g, Eppendorf MiniSpin) a 100 μL solution was analyzed by RP-HPLC using a Jupiter C18 column (2.0 mm inner diameter, 150 mm length, 5 μm particle size, 30 nm pore size; Phenomenex, Torrance) on a Beckman Gold HPLC System at 60°C. The gradient from 0.1% TFA in water (eluent A) to 60% acetonitrile in 0.1% aqueous TFA (eluent B) was developed using 1% B/min and the amide bond was monitored at 214 nm."}, "MCF-7 cells": {"test_system": "MCF-7 cells", "assay": "Agonistic activity screening of targeted peptide library in MCF-7 cells", "format": "cell-based", "conditions": "biological activity screening in MCF-7 cells, targeted agonist library", "from_the_text": "Based on the success of our first-in-class AdipoR agonist ADP355 and recognizing the need for a similar AdipoR antagonist, we modified the composition of ADP355 to attenuate AdipoR functions and signaling. The starting point of the design was the activity of the 396-member peptide library we made earlier and from which the ADP355 agonist was selected, and a new central hexamer named peptide 3–8 (Table 2). […] While Pro1 in the C-terminal octamer (Pro3 in ADP355) is replaceable, Gly2, Tyr4, Phe6, Ala7, and DSer8 should be kept for binding. Because Nva3 recovers activation, Leu, the original amino acid in native adiponectin, should be used in this position. […] In the new antagonist Pro1 was replaced with 1-amino-cyclohexane carboxylic acid (Chex1), extremely useful as an N-terminal cyclic aliphatic amino acid mimic in designer antibacterial peptides (Cudic et al., [2002]). These considerations led to derivative 400 (ADP400), H-Chex-Gly-Leu-Tyr-DSer-Phe-Ala-DSer-NH2 (we called it Chex-DSer-8), as a potential AdipoR antagonist (Tables 1, 2)."}, "MCF-7 BC cells [3]": {"test_system": "MCF-7 BC cells", "assay": "MCF-7 BC cell proliferation, 3-day growth inhibition/promotion by cell count", "format": "cell-based", "description": "as §1"}, "MCF-7 BC cells [4]": {"test_system": "MCF-7 BC cells", "conditions": "ADP400 100 nM with ADP355 100 nM; p = 0.003"}, "pooled mouse serum": {"assay": "pooled mouse serum", "conditions": "37°C, up to 240 min"}, "[5]": {"assay": "Aggregation / precipitation observed during assays", "format": "physicochemical", "conditions": "during serum stability assay procedure (mouse serum, TCA precipitation) or under the authors' experimental conditions", "description": "as §2"}, "[6]": {"test_system": "K562 chronic myeloid leukemia (CML) cells", "conditions": "compared to unrelated human serum albumin; ref Yokota et al., 2000; cited from earlier work", "from_the_text": "The cellular models used here were selected among those known to express AdipoR, involve adiponectin in biological responses and yield reproducible results in our hands. Adiponectin protein has been linked to leukemia, lymphoma, and myeloma in individuals with above-average BMI (Obeid and Hebbard, [2012]). Human-origin K562 CML cells express both AdipoR forms although at relatively low levels (Ozturk et al., [2012])."}}, "note": "Entries after “also recorded” stand apart in the source; their conditions may differ. Where two headings read alike, the source gives them in different places. Positions of bridges follow the written chain, without caps; N, C: chain ends. Non-standard residues stand in square brackets, D forms with d. Residues, ends and D or L forms follow the SMILES beside them. Chains are numbered I, II in the order given. No end group written: not given here. Ac6c = NC1(C(=O)O)CCCCC1; Dab = NCC[C@H](N)C(=O)O; Nva = CCC[C@H](N)C(=O)O"}
{"molecule": "CCC[C@H](NC(=O)[C@@H]1CCCN1C(=O)[C@@H](NC(=O)[C@H](N)CC(N)=O)[C@@H](C)CC)C(=O)N[C@@H](CC(C)C)C(=O)N[C@@H](Cc1ccc(O)cc1)C(=O)N[C@H](CO)C(=O)N[C@@H](Cc1ccccc1)C(=O)N[C@@H](C)C(=O)N[C@H](CO)C(N)=O", "note": "[ADP355] (H-[dN]IP[Nva]LY[dS]FA[dS]-NH2)", "values": [{"measurement": "IC50", "setting": "[1]; K562, 72 h treatment, 10 nM–10 μM peptide, first assay, IC50 halfway between uninhibited growth and maximal growth inhibition, read-out: relative IC50, inhibition of K562 proliferation", "value": 200, "unit": "nM"}, {"measurement": "toxic properties to normal mice", "setting": "normal mice", "value": "no toxic properties"}, {"measurement": "half-life in whole plasma (estimated)", "setting": "[2]", "value": 1.25, "unit": "h"}, {"measurement": "half-life at 0.075 mg/mL", "setting": "Serum stability", "value": 3, "unit": "h"}]}
{"molecule": "[dN]IPGLYGFA[dS] [compound 91, member of targeted agonist library]", "values": [{"measurement": "Agonistic activity", "setting": "MCF-7 cells", "value": "Normal"}]}
{"molecule": "leptin: Leptin protein, positive control for exogenous mitogen actions [reference compound]", "values": [{"measurement": "promotion of MCF-7 cell growth", "setting": "MCF-7 BC cells [3]; 10 nM, positive control for exogenous mitogen", "value": 10, "unit": "%"}]}
{"molecule": "CCC[C@H](NC(=O)[C@@H]1CCCN1C(=O)[C@@H](NC(=O)[C@H](N)CC(N)=O)[C@@H](C)CC)C(=O)N[C@@H](CC(C)C)C(=O)N[C@@H](Cc1ccc(O)cc1)C(=O)N[C@H](CO)C(=O)N[C@@H](Cc1ccccc1)C(=O)N[C@@H](C)C(=O)N[C@H](CO)C(=O)N[C@@H](Cc1c[nH]cn1)C(=O)N1CCC[C@H]1C(=O)NCC[C@H](NC(=O)[C@@H]1CCCN1C(=O)[C@H](Cc1c[nH]cn1)NC(=O)[C@@H](CO)NC(=O)[C@H](C)NC(=O)[C@H](Cc1ccccc1)NC(=O)[C@@H](CO)NC(=O)[C@H](Cc1ccc(O)cc1)NC(=O)[C@H](CC(C)C)NC(=O)[C@H](CCC)NC(=O)[C@@H]1CCCN1C(=O)[C@@H](NC(=O)[C@H](N)CC(N)=O)[C@@H](C)CC)C(N)=O", "note": "[ADP399] (I: H-[dN]IP[Nva]LY[dS]FA[dS]HP[Dab]-NH2 / II: H-[dN]IP[Nva]LY[dS]FA[dS]HP; amide I:13-II:C)", "values": [{"measurement": "half-life at 0.075 mg/mL", "setting": "Serum stability", "value": 0.917, "unit": "h"}, {"measurement": "remaining at 2 h, 0.075 mg/mL", "setting": "Serum stability; 37°C, 2 h, read-out: intact peptide still present after 2 h incubation", "value": 16, "unit": "%"}]}
{"molecule": "NIPGLY[dS]FAY [compound 223, member of targeted agonist library]", "values": [{"measurement": "Agonistic activity", "setting": "MCF-7 cells", "value": "Weakest among P25 analogs"}]}
{"molecule": "CC(C)C[C@H](NC(=O)CNC(=O)C1(N)CCCCC1)C(=O)N[C@@H](Cc1ccc(O)cc1)C(=O)N[C@H](CO)C(=O)N[C@@H](Cc1ccccc1)C(=O)N[C@@H](C)C(=O)N[C@H](CO)C(N)=O", "note": "[ADP400] (H-[Ac6c]GLY[dS]FA[dS]-NH2)", "values": [{"measurement": "effect on ADP355-induced MCF-7 growth inhibition", "setting": "MCF-7 BC cells [4]", "value": "completely ameliorated"}, {"measurement": "effect on MCF-7 cell growth without ADP355 present", "setting": "MCF-7 BC cells [3]; 100 nM, alone, compared with co-treatment, which reached the growth level of 10 nM leptin", "value": "promoted cell growth to an identical degree"}]}
{"molecule": "(H-DAsn-Ile-Pro-Nva-Leu-Tyr-DSer-Phe-Ala-DSer-His-Pro)2-Dab-NH2 (branched)", "values": [{"measurement": "cleaved bond", "setting": "pooled mouse serum", "value": "Leu-Tyr; also recorded: Tyr-DSer"}]}
{"molecule": "HCNIPGLYYF [compound 24, member of targeted agonist library]", "values": [{"measurement": "Agonistic activity", "setting": "MCF-7 cells", "value": "Normal"}]}
{"molecule": "NIP[Nva]LYYFAY [compound 157, member of targeted agonist library]", "values": [{"measurement": "Agonistic activity", "setting": "MCF-7 cells", "value": "Increased"}]}
{"molecule": "PGLYYFAYHI [compound 26, member of targeted agonist library]", "values": [{"measurement": "Agonistic activity", "setting": "MCF-7 cells", "value": "Normal"}]}
{"molecule": "HCN[Nva]PGLYYF [compound 156, member of targeted agonist library]", "values": [{"measurement": "Agonistic activity", "setting": "MCF-7 cells", "value": "None"}]}
{"molecule": "HCN[Nva]PG[Nva]YYF [compound 288, member of targeted agonist library]", "values": [{"measurement": "Agonistic activity", "setting": "MCF-7 cells", "value": "Reduced"}]}
{"molecule": "NIPGLYYFAY [compound 25]", "values": [{"measurement": "Agonistic activity", "setting": "MCF-7 cells", "value": "Normal"}]}
{"molecule": "PGL[dS]YF[Nva]YHI [compound 290, member of targeted agonist library]", "values": [{"measurement": "Agonistic activity", "setting": "MCF-7 cells", "value": "None"}]}
{"molecule": "CCC[C@@H]1NC(=O)[C@@H]2CCCN2C(=O)[C@H]([C@@H](C)CC)NC(=O)[C@@H](CC(N)=O)NC(=O)[C@H](CC(=O)O)NC(=O)[C@H](Cc2c[nH]cn2)NC(=O)[C@@H](CO)NC(=O)[C@H](C)NC(=O)[C@H](Cc2ccccc2)NC(=O)[C@@H](CO)NC(=O)[C@H](Cc2ccc(O)cc2)NC(=O)[C@H](CC(C)C)NC(=O)[C@H](CCC)NC(=O)[C@@H]2CCCN2C(=O)[C@H]([C@@H](C)CC)NC(=O)[C@@H](CC(N)=O)NC(=O)[C@@H]2CCCN2C(=O)[C@H](Cc2c[nH]cn2)NC(=O)[C@@H](CO)NC(=O)[C@H](C)NC(=O)[C@H](Cc2ccccc2)NC(=O)[C@@H](CO)NC(=O)[C@H](Cc2ccc(O)cc2)NC(=O)[C@H](CC(C)C)NC1=O", "note": "[compound 398]", "values": [{"measurement": "IC50", "setting": "[1]; 72 h", "value": 300, "unit": "nM"}, {"measurement": "concentration of maximal effect on K562 proliferation", "setting": "[1]; K562, 3-day assay", "value": 1, "unit": "µM"}, {"measurement": "aggregation / precipitation", "setting": "[5]", "value": "did aggregate during the serum stability assay"}, {"measurement": "aggregation / precipitation", "setting": "[5]; listed as cyclic dimer", "value": "precipitated during the assay procedure"}]}
{"molecule": "PGLYYF [3–8, new central hexamer]", "values": [{"measurement": "Agonistic activity", "setting": "MCF-7 cells", "value": "None"}]}
{"molecule": "B1", "values": [{"measurement": "inhibition of relative proliferation rate of K562 cells", "setting": "[6]", "value": 9, "unit": "%"}]}
